Measurements as given in patent US6395733B1, “Heterocyclic ring-fused pyrimidine derivatives” (Pfizer Inc, priority 1999, dated 2002).

Legend:
[1] = system: another carcinoma which does not express the EGF receptor; details: athymic nude mice; cited from earlier work
[2] = system: transplanted human mammary carcinoma which expresses epidermal growth factor receptor tyrosine kinase (EGFR); details: athymic nude mice; cited from earlier work

Row | Structure (SMILES) | melting point | further results
1 | O=CN/C=C/c1cc(O)ccc1O [erbstatin] | – | growth of carcinoma not expressing the EGF receptor [1]: without effect on the growth; growth of transplanted human mammary carcinoma expressing EGFR [2]: selectively attenuates the growth
2 | Oc1cc2ncnc(N3CCc4ccc(Cl)cc43)c2[nH]1 | 250 °C (dec.) | –
3 | Clc1ccc2c(c1)N(c1ncnc3cnccc13)CC2 | 194 to 196 °C | –
4 | c1ccc(Nc2ncnc3cnccc23)cc1 | 161 °C | –
5 | c1ccc(Nc2ncnc3ncccc23)cc1 | 258 °C | –
6 | Cc1cc2c(N3CCc4ccc(Cl)cc43)ncnc2cn1 | 232 to 234 °C | –
7 | Cc1cc2c(N3CCc4cc(F)c(Br)cc43)ncnc2cn1.Cl | 262 to 264 °C | –
8 | Cl.c1nc(Nc2ccc3[nH]ccc3c2)c2cc[nH]c2n1 | 218 to 221 °C | –
9 | Cl.Clc1ccc2c(c1)N(c1ncnc3[nH]ccc13)CC2 | 266 °C (dec.) | –
10 | Cc1cc2c(N3CCc4ccc(Br)c(C)c43)ncnc2cn1.Cl | 212 to 229 °C | –
11 | Cc1cc2c(N3CCc4c(Br)ccc(C)c43)ncnc2cn1.Cl | 232 to 244 °C | –
12 | Cl.c1cc2c(Nc3ccc4sccc4c3)ncnc2cn1 | 280 to 282 °C | –

More lines, main results first:

Row | melting point | Structure (SMILES) | further results
13 | 251 to 258 °C | Cc1cc2c(Nc3ccc(F)c(Cl)c3)ncnc2cn1.Cl | –
14 | 251 to 254 °C | Cc1cc2c(Nc3ccc(Br)c(F)c3)ncnc2cn1.Cl | –
15 | 298 to 305 °C | Cc1cc2c(Nc3ccc(O)c(C)c3)ncnc2cn1.Cl.Cl | –
16 | 240 to 241 °C | C#Cc1cccc(Nc2ncnc3cc(C)ncc23)c1.Cl | –
17 | 250 to 252 °C | C#Cc1cccc(Nc2ncnc3cnc(C)cc23)c1.Cl | –
18 | 269 to 270 °C | Cc1cc2c(Nc3cccc(C(F)(F)F)c3)ncnc2cn1.Cl | –
19 | 261 to 265 °C | Cc1cc2c(Nc3ccc(O)c(I)c3)ncnc2cn1.Cl | –
20 | 262 to 263 °C | CS(=O)(=O)O.Cc1cc2c(Nc3ccc4[nH]ccc4c3)ncnc2cn1 | –
21 | 246 to 250 °C | Cc1cc2c(Nc3ccc(F)c(C)c3)ncnc2cn1.Cl | –
22 | 240 to 241 °C | C#Cc1cccc(Nc2ncnc3c2ccn3CCOCCOC)c1 | –
23 | 225 °C | C#Cc1cc(Nc2ncnc3cnc(C)cc23)ccc1F | –
24 | 172 °C | Cc1cccc(Nc2ncnc3cnccc23)c1 | –
